Measurements published in patent US4262008A, “2,4-Disubstituted 5-oxo-5H-hexahydrofuro[3,2b]pyrroles” (Beecham Group Limited, priority 1978, dated 1981).
Where two headings read alike, the source gives them in different places.

Assays:
[1] = tested on: platelet aggregation in response to collagen (human platelet-rich plasma); assay: Platelet aggregation in vitro, response to collagen; type: cell-based; conditions: human P.R.P., 37° C., 3 min preincubation, 50% inhibition of just-maximal collagen response
Experimental: (§1) Human blood (20 ml) is drawn into a plastic syringe and immediately anti-coagulated by mixing with 0.1 volumes of 3.8% (w/v) trisodium citrate dihydrate. Platelet-rich plasma (P.R.P.) is prepared by centrifuging the anticoagulated blood of 180 g, for 12 minutes, at room temperature. Collagen "Collagen-reagent Horm" (Hormon-Chemie Munchem, Postfach 101, Germany) is dilated as necessary with 0.9% (w/v) saline and kept on ice. Adenosine 5'-diphosphate (A.D.P.) (Grade 1: sodium salt from equine muscle, Sigma.) is diluted, as necessary with 0.9% saline, from a 10 mM stock solution, pH 6.8 kept at -20° C. The compounds are dissolved freshly to 40 mM in dimethylformamide. P.R.P. is mixed with 0.1 volumes saline and 0.005 volumes compound on dimethylformamide (control) and incubated at 37° C. for 3 minutes before the addition of collagen.
(§2) Platelet aggregation in response to collagen and A.D.P. is measured photometrically (Born G.V.R., 1962, Nature, 194 927) in a Bryston aggregometer coupled to a Vitatron linear pen recorder. The concentration of collagen producing a just-maximal change in light transmittance and the concentration of A.D.P. to produce only a first-phase aggregation response are established in each control P.R.P. The concentration of compounds to inhibit these control response by 50% in each case are determined.

[2] = tested on: platelet aggregation in response to A.D.P. (human platelet-rich plasma); assay: Platelet aggregation in vitro, response to A.D.P.; type: cell-based; conditions: human P.R.P., 37° C., 3 min preincubation, 50% inhibition of first-phase aggregation response, read-out: IC50 vs. ADP
Experimental: as §1, §2

[3] = tested on: bronchoconstriction induced by an histamine aerosol; assay: Protection of conscious guinea pigs against bronchoconstriction induced by histamine aerosol (Herxheimer test); type: in vivo, guinea pig; conditions: aerosol generated from a 100 μg/ml solution
Experimental: 3. The compounds were also examined for their ability to protect conscious guinea pigs against bronchoconstriction induced by an histamine aerosol (Herxheimer test). In these experiments the compounds were administered by aerosol administration.

[4] = tested on: 5-hydroxytryptamine induced bronchoconstriction; assay: Inhibition of 5-hydroxytryptamine induced bronchoconstriction in anaesthetised, artificially respired guinea pig (Konzett-Rossler preparation); type: in vivo
Experimental: 1. The compounds were examined for their ability to inhibit 5-hydroxytryptamine induced bronchoconstriction in the anaesthetised, artificially respired guinea pig (Konzett-Rossler preparation). The compounds were administered intravenously.

[5] = tested on: histamine induced changes in pulmonary resistance and lung compliance; assay: Inhibition of histamine induced changes in pulmonary resistance and lung compliance in anaesthetised spontaneously respiring guinea pig; type: in vivo; conditions: Cavia porcellus, iv
Experimental: 2. The compounds were tested for their ability to inhibit histamine induced changes in pulmonary resistance and lung compliance in the anaesthetised spontaneously respiring guinea pig. The compounds were administered intravenously.

SMILES | IC50 ([1]; Homo sapiens, Platelet) [µM] | IC50 ([2]; Homo sapiens, Platelet) [µM] | further results
CCCCCCC(O)CCN1C(=O)CC2OC(CCCCC(=O)OCC)CC21 (single isomer, unassigned) [Example 4 (Higher Rf epimer), 2-(4'-ethoxycarbonyl-n-butyl)-4-(3"-hydroxy-n-nonyl)-5-oxo-5H-hexahydrofuro[3,2b]pyrrole] | – | – | IC50 [1]: 2.9 µM; IC50 [2]: 7.4 µM
CCCCCCC(O)CCN1C(=O)CC2OC(CCCCC(=O)OCC)CC21 (single isomer, unassigned) [Example 4 (Lower Rf epimer), 2-(4'-ethoxycarbonyl-n-butyl)-4-(3"-hydroxy-n-nonyl)-5-oxo-5H-hexahydrofuro[3,2b]pyrrole] | – | – | IC50 [1]: 28 µM; IC50 [2]: 120 µM
CCCCCCC(C)(O)CCN1C(=O)CC2OC(CCCCC(=O)OCC)CC21 (stereo not shown) [Example 1, 2-(4'-Ethoxycarbonyl-n-butyl)-4-(3"-hydroxy-3"-methyl-n-nonyl)-5-oxo-5H-hexahydro-furo[3,2-b]pyrrole] | 8.8 | 35 | protection against histamine challenge [3]: highly significant protection; ED50 ([4]; Cavia porcellus, iv, mean of 3 experiments, read-out: ED 50 against 5-hydroxytryptamine induced bronchoconstriction): 0.131 mg/kg; ED 50 range against 5-hydroxytryptamine induced bronchoconstriction ([4]; i.v., range of 3 experiments): 0.115 to 0.15 mg/kg; ED50 ([5]; lung compliance, read-out: ED 50 against compliance changes): 0.046 mg/kg; ED50 ([5]; pulmonary resistance, read-out: ED 50 against resistance changes): 0.033 mg/kg
CCCCCC(O)CCN1C(=O)CC2OC(CCCCC(=O)OC)CC21 (stereo not shown) [Example 3, 4-(3"-Hydroxy-n-octyl)-2-(4'-methoxycarbonyl-n-butyl)-5-oxo-5H-hexahydrofuro[3,2-b]pyrrole] | 1.7 | 4.9 | –
CCOC(=O)CCCCC1CC2C(CC(=O)N2CCC(C)(O)CC2CCCCC2)O1 (stereo not shown) [Example 5, 2-(4'-ethoxycarbonyl-n-butyl)-4-(3"-hydroxy-3"-hydroxy-3"-methyl-4"-cyclohexyl-n-butyl)5-oxo-5H-hexahydro-furo [3-2b]pyrrole] | 17 | 100 | –
CCOC(=O)CCCCCC1CC2C(CC(=O)N2CCC(C)(O)C2CCCCC2)O1 (stereo not shown) [Example 6, 2-(5'-ethoxycarbonyl-n-pentyl)-4-(3"-hydroxy-3"-cyclohexyl-n-butyl)-5-oxo-5H-hexahydro-furo[3,2b]pyrrole] | 1.2 | 2.5 | –
CCOC(=O)CCCCC1CC2C(CC(=O)N2CCC(C)(O)C2CCCCC2)O1 (stereo not shown) [Example 7, 2-(5'-ethoxycarbonyl-n-butyl)-4-(3"-hydroxy-3"-cyclohexyl-n-butyl)-5-oxo-5H-hexahydro-furo[3,2b]pyrrole] | 0.26 | 0.54 | –
